Source: patent US11903912B2, “Composition for preventing and treating breast cancer including selenopsammaplin A as active ingredients” (Seoul National University R & DB Foundation, priority 2019, dated 2024)

System: HCT116 human colon cancer cells
Assay: SRB cytotoxicity test, HCT116
Format: cell-based
Conditions: SRB assay, cultured 3 days
Protocol: A cytotoxicity test was performed using synthesized selenopsammaplin A and derivatives thereof (Lee S K et al […] Chem Biol Interact 115:215-28).
The cytotoxicity test was performed on a total of five representative cancer cell lines. The cytotoxicity of each compound was measured using an SRB assay method (human lung cancer cells, A549; human colon cancer cells, HCT116; human breast cancer cells, MDA-MB231; human liver cancer cells, SK-HEP-1; human gastric cancer cells, SNU638).
Each cell line was sub-cultured once or twice using Roswell Park Memorial Institute (RPMI) medium 1640 (RPMI 1640) or Dulbecco's Modified Eagle's Medium (DMEM) containing 10% fetal bovine serum (FBS) inactivated by heat, 100 units/mL of penicillin, 100 μg/mL of streptomycin, and 250 ng/mL of amphotericin B at 37° C. for 1 week under a 5% CO2 condition. All cells were […] in liquid nitrogen, and then passaged three or more times to be used in the experiment. The effects of compounds on cell growth were measured using a sulforhodamine B (SRB) method (Lee et al (1998) Chemico-Biol Interact 115:215-228).
Specifically, each human cancer cell line used in the present invention was sub-cultured in an RPMI medium containing 10% FBS, 1% PSF, and the like, and 10 μl of a sample dissolved in 10% DMSO and 190 μl (4-5×10^4 cells/ml) of the cell suspension were added to each well of a 96-well plate and cultured for 3 days. 190 μl of the cell suspension was added to at least 16 wells and cultured for 30 minutes, and used as a zero-day control. The cultured cells were fixed with 10% trichloroacetic acid (TCA) and then stained with an SRB solution, and the staining solution was dissolved with 10 mM Tris-base, and then absorbance at 515 nm was measured. Using the case of culturing in 10% DMSO as a control, cell viability according to each test material treatment was measured using Equation 1 below. Etoposide was used as a positive control. % Viability=(OD(sample)−OD(0-day))/(OD(10% DMSO)−OD(0-day))×100 [Equation 1]
Assuming that a control not-treated with the sample was set at 100%, the values of sample-treated groups were expressed as percentage with respect to the control, and each test material treatment results were obtained as the mean±SEM of two or three tests. The IC50 value is the concentration of the test material for a 50% survival rate.

SMILES: O=C(NCC[Se][Se]CCNC(=O)/C(Cc1ccccc1)=N/O)/C(Cc1ccccc1)=N/O [Compound 2, (2E,2′E)-N,N′-(diselenediylbis(ethane-2,1-diyl))bis(2-(hydroxyimino)-3-phenylpropanamide)]
- IC50: 90 nM
